Reference: ChEMBL document CHEMBL5727382, “[1,2,3]triazolo[4,5-D]pyrimidine derivatives with affinity for the type-2 cannabinoid receptor” (2019)

Assays:
Cannabinoid receptor 1 = Cannabinoid receptor 1 (Homo sapiens, UniProt P21554); experiment: (§1) Radioligand Binding Assay: he affinity of the compounds of the invention for cannabinoid receptors was determined using recommended amounts of membrane preparations (PerkinElmer) of human embryonic kidney (HEK) cells expressing the human CNR1 or CNR2 receptors in conjunction with 1.5 or 2.6 nM [3H]-CP-55,940 (Perkin Elmer) as radioligand, respectively. Binding was performed in binding buffer (50 mM Tris, 5 mM MgCl2, 2.5 mM EDTA, and 0.5% (wt/vol) fatty acid free BSA, pH 7.4 for CB1 receptor and 50 mM Tris, 5 mM MgCl2, 2.5 mM EGTA, and 0.1% (wt/vol) fatty acid free BSA, pH 7.4 for CB2 receptor) in a total volume of 0.2 mL for 1 h at 30° C. shaking. The reaction was terminated by rapid filtration through microfiltration plates coated with 0.5% polyethylenimine (UniFilter GF/B filter plate; Packard). Bound radioactivity was analyzed for Ki using nonlinear regression analysis (Activity Base, ID Business Solution, Limited), with the Kd values for [3H]CP55,940 determined from saturation experiments.
Cannabinoid receptor 2 = Cannabinoid receptor 2 (Homo sapiens, UniProt P34972); experiment: as §1
Sequence of Cannabinoid receptor 2 (P34972 whole entry): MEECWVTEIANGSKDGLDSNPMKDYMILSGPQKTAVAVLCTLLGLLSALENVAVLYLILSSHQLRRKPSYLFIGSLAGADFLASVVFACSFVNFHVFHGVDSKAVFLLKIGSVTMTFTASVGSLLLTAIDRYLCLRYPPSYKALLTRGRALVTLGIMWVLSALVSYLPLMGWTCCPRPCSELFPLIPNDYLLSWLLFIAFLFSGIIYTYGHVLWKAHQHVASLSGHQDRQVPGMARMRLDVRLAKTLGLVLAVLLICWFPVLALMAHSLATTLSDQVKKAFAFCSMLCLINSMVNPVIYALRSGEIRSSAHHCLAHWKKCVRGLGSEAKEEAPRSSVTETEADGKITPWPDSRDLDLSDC

Sequence of Cannabinoid receptor 1 (P21554 whole entry): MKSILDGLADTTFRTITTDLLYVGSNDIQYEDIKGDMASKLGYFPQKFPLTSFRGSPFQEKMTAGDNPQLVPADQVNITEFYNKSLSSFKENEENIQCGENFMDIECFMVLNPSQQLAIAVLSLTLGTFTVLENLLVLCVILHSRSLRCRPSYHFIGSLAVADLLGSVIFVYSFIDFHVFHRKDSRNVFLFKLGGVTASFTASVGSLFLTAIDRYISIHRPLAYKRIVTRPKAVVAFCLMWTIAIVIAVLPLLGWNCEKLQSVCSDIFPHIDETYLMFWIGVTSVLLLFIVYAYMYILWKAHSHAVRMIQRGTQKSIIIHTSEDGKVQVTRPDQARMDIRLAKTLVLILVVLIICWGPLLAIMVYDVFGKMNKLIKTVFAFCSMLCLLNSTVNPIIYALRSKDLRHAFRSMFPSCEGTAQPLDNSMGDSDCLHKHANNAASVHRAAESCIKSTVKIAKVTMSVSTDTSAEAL

| SMILES | Ki (Cannabinoid receptor 1) [µM] | Ki (Cannabinoid receptor 2) [µM] |
| --- | --- | --- |
| CC(C)(C)c1nc(N2CCC(N=C=S)C2)c2nnn(Cc3ccccc3Cl)c2n1 (centres undefined) | 5.64 | 1.36 |
| Cc1nonc1Cn1nnc2c(N3CC[C@@H](S)C3)nc(C(C)(C)C)nc21 (single isomer, unassigned) | 8 | 0.64 |
